Measurements reported in publication PMC10049699, “Identification and Empiric Evaluation of New Inhibitors of the Multidrug Transporter P-Glycoprotein (ABCB1)” (International Journal of Molecular Sciences, 2023).
Entries after “also recorded” stand apart in the source; their conditions may differ.

What was measured:
Type in all cases: cell-based
Flp-In parental cells = assay: Taxol challenge assay, parental cells / growth with inhibitor alone; settings: for cytotoxicity of test compound: 100 nM, three-day (72 h) period, cell line not specified; for effect on the growth of the Flp-In parental cells: test compound at 100 nM
Text: (§1) The four compounds are potent inhibitors of calcein-AM transport, but can they inhibit the efflux of chemotherapeutic drugs. To address this question, we first substituted a fluorescent derivative of the anticancer drug taxol for calcein-AM in a transport assay. […] We next tested whether the drugs would sensitise the Flp-In-ABCB1 cells to the clinically relevant form of taxol. The Flp-In-ABCB1 cells and their parental Flp-In cells were challenged over a three-day period with a range of concentrations of taxol in the presence and absence of test compounds at 100 nM concentration.
(§2) Flp-In-293 and Flp-In-ABCB1-12His cells (1 × 10^4) were seeded into a 96-well dish in 100 μL of medium, as above. Taxol (Cambridge Bioscience, Cambridge, UK) was added to a final concentration ranging from 0 nM to 10 μM in the presence or absence of inhibitors at 100 nM. The cells were cultured for a further 72 h, after which the medium was aspirated, and the cells were detached with 30 μL TrypLE Express (ThermoFisher Sci, Waltham, MA, USA) before quenching with 75 μL transport buffer and transfer to flow cytometry tubes. Cells of normal size and granularity, gated on the zero-drug condition and then applied to all samples, were counted in an ACEA NovoCyte flow cytometer (Agilent Technologies, Santa Clara, CA, USA). Cell number data were analysed in Graphpad PRISM (MacOS Version 9.4.1; GraphPad Software, San Diego, CA, USA). Curve fitting and statistical analysis was performed as above.

ABCB1 [1] = biological target: T1, ABCB1 (Homo sapiens, UniProt P08183); assay: calcein-AM drug transport (accumulation) assay in live Flp-In-ABCB1 cells, flow cytometry; settings: for IC50: Flp-In-ABCB1 cells, 30 min, n = 3 biological repeats, read-out: IC50 for inhibition of ABCB1 transport activity; for mean bottom plateau value of ABCB1 activity curve (efficacy): ratio of calcein content of ABCB1 non-expressing cells to whole population, full inhibition at 1.0; for effect on ABCB1: preliminary data, up to a concentration of 100 nM
T1 construct: expressed in transfected cells
T1 sequence (P08183 whole entry): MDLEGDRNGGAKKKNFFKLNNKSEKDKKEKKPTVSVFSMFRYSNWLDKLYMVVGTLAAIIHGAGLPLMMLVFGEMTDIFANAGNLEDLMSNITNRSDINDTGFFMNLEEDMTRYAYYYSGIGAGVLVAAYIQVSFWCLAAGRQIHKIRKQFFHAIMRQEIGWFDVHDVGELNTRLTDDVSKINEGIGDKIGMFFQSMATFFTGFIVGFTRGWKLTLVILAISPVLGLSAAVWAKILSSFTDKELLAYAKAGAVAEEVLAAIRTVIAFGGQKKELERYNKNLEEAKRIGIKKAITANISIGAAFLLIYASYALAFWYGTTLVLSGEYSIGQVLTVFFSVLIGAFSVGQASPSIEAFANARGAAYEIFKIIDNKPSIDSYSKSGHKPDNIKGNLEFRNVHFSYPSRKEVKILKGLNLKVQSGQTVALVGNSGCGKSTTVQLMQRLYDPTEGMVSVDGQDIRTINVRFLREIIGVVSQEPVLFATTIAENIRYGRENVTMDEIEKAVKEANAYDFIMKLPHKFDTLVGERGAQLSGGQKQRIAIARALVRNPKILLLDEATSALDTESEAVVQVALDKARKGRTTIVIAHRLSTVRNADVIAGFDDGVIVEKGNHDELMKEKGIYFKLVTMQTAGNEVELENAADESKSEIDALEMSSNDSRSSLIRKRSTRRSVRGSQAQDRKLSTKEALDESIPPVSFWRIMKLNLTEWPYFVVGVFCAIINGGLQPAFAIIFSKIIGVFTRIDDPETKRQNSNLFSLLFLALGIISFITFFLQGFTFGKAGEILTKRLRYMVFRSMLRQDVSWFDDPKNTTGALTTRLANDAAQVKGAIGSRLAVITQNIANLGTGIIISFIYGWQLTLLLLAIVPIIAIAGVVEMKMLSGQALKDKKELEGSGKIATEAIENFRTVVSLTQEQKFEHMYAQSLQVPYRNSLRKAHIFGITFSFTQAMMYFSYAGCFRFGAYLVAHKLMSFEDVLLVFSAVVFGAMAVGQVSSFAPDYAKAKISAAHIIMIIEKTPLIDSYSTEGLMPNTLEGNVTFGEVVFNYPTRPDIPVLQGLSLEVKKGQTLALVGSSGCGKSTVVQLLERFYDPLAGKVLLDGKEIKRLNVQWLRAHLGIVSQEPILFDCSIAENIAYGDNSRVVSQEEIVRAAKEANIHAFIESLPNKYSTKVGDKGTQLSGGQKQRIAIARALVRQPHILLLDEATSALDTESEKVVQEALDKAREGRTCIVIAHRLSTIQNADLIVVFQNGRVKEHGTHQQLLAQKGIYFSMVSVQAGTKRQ
Experimental: We have previously integrated a single copy of pcDNA5/FRT-ABCB1-12His into the genome of Flp-In 293 cells to generate the Flp-In-ABCB1 cell line. To prevent possible drug–drug interactions during the transport assay, the Flp-In-ABCB1 cells were cultured in the absence of hygromycin, which is normally used to select for the continued expression of the hygromycin resistance gene carried on the pcDNA5/FRT plasmid. […] We also used the non-toxic cell-permeant dye calcein-AM as a transport substrate of ABCB1 [35, 36].
The concentration of calcein-AM was titrated until the ABCB1-positive cells began to accumulate calcein. […] This concentration was used in all further live cell transport assays. To test whether the assay could be applied to drug inhibition studies, we incubated the Flp-In-ABCB1 cells with calcein-AM in the presence of the third-generation inhibitor tariquidar.
These are the cells that no longer express ABCB1 (population […] in Figure 2B) due either to deletion of the plasmid from the genome or, perhaps more likely, silencing of the locus by chromatin condensation. These cells survive in the absence of hygromycin selection, but they are useful as they provide an internal negative control that can be easily identified in the single channel histogram at the lowest level of inhibitor. Transport activity of the ABCB1 was, thus, calculated using the fold difference in median drug accumulation by this ABCB1 non-expressing population G4 at the lowest concentration of inhibitor versus the median drug accumulation across all cells (population G5), as described in Equation (1). (1) Median drug accumulation in ABCB1 non−expressing cells G4/Median drug accumulation in the whole population G5
(§3) Flp-In-293 and Flp-In-ABCB1-12His cells were grown as monolayers in Dulbecco’s modified Eagle medium (DMEM; ThermoFisher Sci, Waltham, MA, USA) supplemented with 10% foetal bovine serum (FBS; ThermoFisher Sci, Waltham, MA, USA). The cell lines were incubated in a humidified incubator at a temperature of 37 °C in an atmosphere of 5% CO2. For the drug transport assay, cells (3 × 10^5 per well) were seeded in a 24-well, flat-bottomed plate (Sarstedt AG and Co., Nümbrecht, Germany) in 500 μL growth medium and incubated for 24 h, as above. The medium was aspirated, and the cells were washed with the transport buffer (phenol-red free DMEM, with 1% FBS). Next, the cells were incubated with calcein-AM (Invitrogen, Waltham, MA, USA) at 250 nM or OG-taxol (Invitrogen, Waltham, MA, USA) at 0.4 μM in 200 μL transport buffer for 30 min at 37 °C in the presence or absence of inhibitor (Tariquidar was purchased from MedChemExpress (Monmouth Junction, NJ, USA) and the test inhibitors were from Chembridge Corporation (San Diego, CA, USA); Table 2). All test compounds, tariquidar, and calcein-AM were solubilized in DMSO and further diluted in transport buffer for the transport assay. The concentration of DMSO in the final solution never exceeded 1.1%, at which concentration it has no apparent effect on the cells or the function of ABCB1. The medium was then aspirated, and cells were washed with ice-cold transport buffer and harvested with 25 μL trypsin (TrypLE express enzyme; ThermoFisher Sci, Waltham, MA, USA). The cells were recovered in a flow cytometry tube in 300 μL ice-cold transport buffer for flow cytometry using a BD LSR II flow cytometer (Becton Dickinson, Franklin Lakes, NJ, USA).
In order to correlate ABCB1 expression with calcein-AM efflux activity, a slightly different order was used, as described previously. Briefly, the cells were first detached from the well and incubated with saturating levels of primary antibody 4E3 (0.5 μg, Abcam, Cambridge, UK) in 100 μL transport buffer on ice for 30 min. […]

ABCB1 [2] = biological target: T1, ABCB1; assay: OG-taxol efflux inhibition assay in Flp-In-ABCB1 cells, flow cytometry; settings: 100 nM test compound, OG-taxol 0.4 μM
Text: as §1, §3

[3] = Taxol challenge assay (resensitisation to taxol); settings: human; Flp-In-ABCB1 (ABCB1 wt) cells, three-day culture, n = 3; read-out: IC50 for taxol (cell number) in the absence of inhibitor
Text: as §1, §2

Flp-In-ABCB1 cells = assay: Taxol challenge assay (resensitisation to taxol); settings: test compound at 100 nM, three-day period
Text: as §1, §2

[4] = ratio of IC50 values, calcein-AM assay

IC50 (ABCB1 [1]; 250 nM calcein-AM) | fold less potent than tariquidar (ABCB1 [1]; [4]) | mean bottom plateau value of ABCB1 activity curve (efficacy) (ABCB1 [1]) | inhibition of OG-taxol efflux by ABCB1 (ABCB1 [2]) | Compound | further results
14.6 nM | 128 fold | 0.93 | inhibition of OG-taxol efflux | Cc1ccc(N2CCN(c3cc(C4CC(N)C4)nc(N)n3)CC2)cc1C (stereo not drawn) [E, 4-(3-aminocyclobutyl)-6-[4-(3,4-dimethylphenyl)piperazin-1-yl]pyrimidin-2-amine] | cytotoxicity of test compound (Flp-In parental cells): did kill cells; also recorded: cytotoxic
0.114 nM |  | 0.78 |  | COc1cc2c(cc1OC)CN(CCc1ccc(NC(=O)c3cc(OC)c(OC)cc3NC(=O)c3cnc4ccccc4c3)cc1)CC2 [Tariquidar, N-[2-[[4-[2-(6,7-dimethoxy-3,4-dihydro-1H-isoquinolin-2-yl)ethyl]phenyl]carbamoyl]-4,5-dimethoxyphenyl]quinoline-3-carboxamide, reference compound] | inhibition of ABCB1 (calcein accumulation to level of parental Flp-In cells) (ABCB1 [1]; 1 nM tariquidar, 250 nM calcein-AM): fully inhibited
 |  |  |  | CC(=O)O[C@H]1C(=O)[C@@]2(C)[C@H]([C@H](OC(=O)c3ccccc3)[C@]3(O)C[C@H](OC(=O)[C@H](O)[C@@H](NC(=O)c4ccccc4)c4ccccc4)C(C)=C1C3(C)C)[C@]1(OC(C)=O)CO[C@@H]1C[C@@H]2O [taxol, reference compound] | IC50 (Flp-In parental cells; 72 h, Flp-In parental cells, three-day culture, n = 3, read-out: IC50 for taxol (cell number) in the absence of inhibitor): 5 nM; IC50 at 72 h [3]: 125 nM
1.4 nM | 12 fold | 1.0 | inhibition of OG-taxol efflux | O=C1CCC(CCNCc2ccccc2)N1Cc1ccc(-n2cccn2)cc1 (stereo not drawn) [A, 5-[2-(benzylamino)ethyl]-1-[4-(1H-pyrazol-1-yl)benzyl]-2-pyrrolidinone] | effect on the growth of the Flp-In parental cells (Flp-In parental cells; three-day culture): no effect; also recorded: do not inhibit cell growth; resensitisation of Flp-In-ABCB1 cells to taxol (Flp-In-ABCB1 cells): resensitised
 |  |  |  | Cc1nnc(NS(=O)(=O)c2ccc3c(c2)CN(C(=O)[C@H](N)C(C)C)CC3)s1 [C, N-(5-methyl-1,3,4-thiadiazol-2-yl)-2-D-valyl-1,2,3,4-tetrahydroisoquinoline-7-sulfonamide] | effect on ABCB1 (ABCB1 [1]; 250 nM calcein-AM): no effect
4.8 nM | 42 fold | 0.36 | inhibition of OG-taxol efflux | Cc1cccc(N2CCN(c3cc(C4CC(N)C4)nc(C4CC4)n3)CC2)c1C.Cl.Cl (stereo not drawn) [F, (3-{2-cyclopropyl-6-[4-(2,3-dimethylphenyl)-1-piperazinyl]-4-pyrimidinyl}cyclobutyl)amine dihydrochloride] | cytotoxicity of test compound (Flp-In parental cells): did kill cells; also recorded: cytotoxic
 |  |  |  | Cc1ccc(CNC(=O)C2CCN(c3cc(C4CC(N)C4)nc(C)n3)CC2)cc1.Cl.Cl (stereo not drawn) [B, 1-[6-(3-aminocyclobutyl)-2-methylpyrimidin-4-yl]-N-(4-methylbenzyl)piperidine-4-carboxamide dihydrochloride] | effect on ABCB1 (ABCB1 [1]; 250 nM calcein-AM): no effect
23.6 nM | 200 fold | 0.58 | inhibition of OG-taxol efflux | Cc1cccc(N2CCN(CC(=O)Nc3nnc(CCN(C)C)s3)CC2)c1 [D, N-{5-[2-(dimethylamino)ethyl]-1,3,4-thiadiazol-2-yl}-2-[4-(3-methylphenyl)piperazin-1-yl]acetamide] | effect on the growth of the Flp-In parental cells (Flp-In parental cells; three-day culture): no effect; also recorded: do not inhibit cell growth; resensitisation of Flp-In-ABCB1 cells to taxol (Flp-In-ABCB1 cells): resensitised; fold less potent than test compound 'A' (ABCB1 [1]; [4]): 17 fold
